Experimental findings from patent US6716987B1, “Derivatives of benzofuran or benzodioxazole compounds” (Kyowa Hakko Kogyo Co., Ltd., priority 1995, dated 2004) are described below.

Where only a bound is given, the exact number is not on record here.

The subject of data set [1] is cAMP-specific phosphodiesterase (PDE IV). The data set can be described thus: Inhibition of the PDE IV enzyme derived from a dog trachea. It is filed as biochemical. The settings on record: test compound 10^−6 M; PDE IV from dog tracheal smooth muscle; substrate cAMP 1 μM. How it is done:
cAMP-specific phosphodiesterase (PDE IV) was purified from a dog tracheal smooth muscle according to the method of Torphy et al. [Molecular Pharmacol., 37, 206-214 (1990)]. The PDE activity was measured by the following two steps according to the method of Kincaid and Manganiello et al. [Method in Enzymology (J. D. Corbin and R. A. Jonson, Eds.), 199, 457-470 (1988)]. Using [^3]cAMP (at a final concentration of 1 μM) as a substrate, the reaction was carried out in a standard mixture containing N,N-bis(2-hydroxyethyl)-2-aminoethanesulfonic acid (50 mM, pH=7.2), MgCl2 (1 mM), and soybean trypsin inhibitor (0.1 mg/ml). The reaction was initiated by adding the enzyme, followed by incubation at 30° C. for 10 to 30 minutes. After stopping the reaction with hydrochloric acid, the generated […] was completely converted to adenosine by 5′-nucleotidase.
The resultant was subjected to chromatography on DEAE-Sephadex A-25, and radio activity of the eluted [^3H] adenosine was counted using a scintillation counter. Each of the test drugs was dissolved in DMSO (final concentration 1.7%) and then added to the mixture.

For orientation: melting point means the temperature of the solid-liquid transition. Turning to `CCOC(=O)CC1COc2c(OC)ccc(C(=O)NC3CCCCC3)c21` (racemic) [Compound 8, (±)-4-Cyclohexylaminocarbonyl-3-ethoxycarbonylmethyl-7-methoxy-2,3-dihydrobenzofuran], the melting point lay in the range of 197 to 199 °C. Besides, in data set [1], the “Enzyme Inhibitory Activity (%, 10^−6 M)” value stood at 5%.
Take `COc1ccc(CSc2ccncc2)c2c1OCC2C` (racemic) [Compound 59, (±)-7-Methoxy-3-methyl-4-(4-pyridylthiomethyl)-2,3-dihydrobenzofuran]: the melting point lay within 110 to 112 °C. In data set [1], the “Enzyme Inhibitory Activity (%, 10^−6 M)” value is recorded as 24%.
For the compound `COc1ccc(C(=O)Nc2c(Cl)cncc2Cl)c2c1OCC2CC(=O)NCc1ccc(Cl)cc1` (racemic) [Compound 30, (±)-3-[(4-Chlorobenzyl)aminocarbonyl]methyl-4-[(3,5-dichloro-4-pyridyl)aminocarbonyl]-7-methoxy-2,3-dihydro-benzofuran], the melting point lay in the range of 283 to 286 °C. Also, the “Enzyme Inhibitory Activity (%, 10^−6 M)” value in data set [1] came to 85%.
The like results for `CCC1COc2c(OC)ccc(C(=O)Nc3c(Cl)cncc3Cl)c21` (racemic) [Compound 3, (±)-4-[(3,5-Dichloro-4-pyridyl)aminocarbonyl]-3-ethyl-7-methoxy-2,3-dihydrobenzofuran] were, in that order, 202 to 204 °C and 75%.
Regarding `COc1ccc(C(=O)Nc2c(Cl)cncc2Cl)c2c1OCC2CC(=O)Nc1c(Cl)cncc1Cl` (racemic) [Compound 32, (±)-4-[(3,5-Dichloro-4-pyridyl)aminocarbonyl]-3-[(3,5-dichloro-4-pyridyl)aminocarbonyl]methyl-7-methoxy-2,3-dihydrobenzofuran], the melting point is more than 300 °C. The “Enzyme Inhibitory Activity (%, 10^−6 M)” value in data set [1] is reported as 81%.
Taken in the same sequence, the figures for `CCOC(=O)Cc1coc2c(OC)ccc(C(=O)Nc3c(Cl)cncc3Cl)c12` [Compound 43, 3-Ethoxycarbonylmethyl-4-[(3,5-dichloro-4-pyridyl)-aminocarbonyl]-7-methoxybenzofuran] were 216 to 218 °C and 62%.
Taken in the same sequence, the figures for `COc1ccc(CSc2ccncc2)c2c1OC(C)(C)C2` [Compound 48, 7-Methoxy-2,2-dimethyl-4-(4-pyridylthiomethyl)-2,3-dihydrobenzofuran] were 109 to 113 °C and 41%.
Consider `COc1ccc(C(Sc2ccncc2)c2ccccc2)c2c1OCC2C` (racemic) [Compound 60A, (±)-7-Methoxy-3-methyl-4-[1-phenyl-1-(4-pyridylthio)-methyl]-2,3-dihydrobenzofuran], for which the melting point is 59 to 62 °C. In data set [1], the “Enzyme Inhibitory Activity (%, 10^−6 M)” value worked out at 15%.
Taken in the same sequence, the figures for `CCOC(=O)CC1COc2c(OC)ccc(C(=O)Nc3ccccc3)c21` (racemic) [Compound 7, (±)-3-Ethoxycarbonylmethyl-7-methoxy-4-phenylaminocarbonyl-2,3-dihydrobenzofuran] were 169 to 170 °C and 37%.
The like results for `COc1ccc(C(=O)Cc2ccncc2)c2c1OCC2C` (racemic) [Compound 104, (±)-7-Methoxy-3-methyl-4-[1-oxo-2-(4-pyridyl)ethyl]-2,3-dihydrobenzofuran] were, in that order, 111 to 117 °C and 48%.
In the case of `COc1ccc(C(=O)Nc2c(Cl)cncc2Cl)c2c1OCC2CC(=O)Nc1ccccc1` (racemic) [Compound 27, (±)-4-[(3,5-Dichloro-4-pyridyl)aminocarbonyl]-7-methoxy-3-(phenylaminocarbonyl)methyl-2,3-dihydrobenzofuran], the melting point is 296 to 300 °C (dec.). The “Enzyme Inhibitory Activity (%, 10^−6 M)” value in data set [1] amounted to 75%.
Taken in the same sequence, the figures for `CCOC(=O)/C(=C/c1ccc(OC)c2c1CC(C)(C)O2)c1ccncc1` [Compound 87, (E)-4-[2-Ethoxycarbonyl-2-(4-pyridyl)ethenyl]-7-methoxy-2,2-dimethyl-2,3-dihydrobenzofuran] were 98 to 100 °C and 61%.
The like results for `COc1ccc(C(=O)Nc2c(Cl)cncc2Cl)c2c1OCC2C` (racemic) [Compound 2, (±)-4-[(3,5-Dichloro-4-pyridyl)aminocarbonyl]-7-methoxy-3-methyl-2,3-dihydrobenzofuran] were, in that order, 198 to 200 °C and 77%.
Taken in the same sequence, the figures for `COc1ccc(C(=O)Nc2c(Cl)cncc2Cl)c2cc(-c3ccncc3)oc12` [Compound 38, 4-[(3,5-Dichloro-4-pyridyl)aminocarbonyl]-7-methoxy-2-(4-pyridyl)benzofuran] were 289 to 290 °C and 89%.
In the case of `COc1ccc(C(=O)Nc2c(Cl)cncc2Cl)c2c1OCC2CC(=O)N1CCc2ccccc2C1` (racemic) [Compound 22, (±)-4-[(3,5-Dichloro-4-pyridyl)aminocarbonyl]-7-methoxy-3-[(1,2,3,4-tetrahydroisoquinolinyl)carbonyl]-methyl-2,3-dihydrobenzofuran], the “Enzyme Inhibitory Activity (%, 10^−6 M)” value in data set [1] is given as 85%.
As to `COc1ccc(C(=O)Cc2ccncc2)c2cc(-c3ccccn3)oc12.Cl.Cl` [Compound 117, 7-Methoxy-4-[1-oxo-2-(4-pyridyl)ethyl]-2-(2-pyridyl)-benzofuran.2 hydrochloride], the “Enzyme Inhibitory Activity (%, 10^−6 M)” value in data set [1] stood at 87%.
Regarding `COc1ccc(C(=O)Nc2ccncc2)c2cc(-c3ccccn3)oc12.Cl.Cl` [Compound 41, 7-Methoxy-2-(2-pyridyl)-4-[(4-pyridylamino)carbonyl]-benzofuran.2 hydrochloride], the “Enzyme Inhibitory Activity (%, 10^−6 M)” value in data set [1] came to 58%.
The same measure, in the same setting: next, `COc1ccc(/C=C/c2ccncc2)c2c1OC1(CCCCC1)C2.Cl` [Compound 77, (E)-7-Methoxy-4-[2-(4-pyridyl)ethenyl]-spiro[2,3-dihydrobenzofuran-2,1′-cyclohexane].hydrochloride]: 87%; `COc1ccc(C(=O)Cc2ccccc2)c2cc(C(=O)c3ccccc3)oc12` [Compound 107, 2-Benzoyl-7-methoxy-4-(1-oxo-2-phenylethyl)benzofuran]: 63%; `COc1ccc(C(=O)Cc2ccncc2)c2c1OC1(CCCC1)CC2.Cl` [Compound 127, 8-Methoxy-5-[1-oxo-2-(4-pyridyl)ethyl]-spiro[3,4-dihydrobenzopyran-2,1′-cyclopentane].hydrochloride]: 70%.
`COc1ccc(/C=C/c2ccncc2)c2cc(-c3ccncc3)oc12.Cl.Cl` [Compound 83, (E)-7-Methoxy-2-(4-pyridyl)-4-[2-(4-pyridyl)ethenyl]-benzofuran.2 hydrochloride]: the “Enzyme Inhibitory Activity (%, 10^−6 M)” value in data set [1] amounted to 89%.
As for `COc1ccc(C(=Cc2ccncc2)c2ccccc2)c2c1OC(C)(C)C2` [Compound 70, 7-Methoxy-2,2-dimethyl-4-[1-phenyl-2-(4-pyridyl)-ethenyl]-2,3-dihydrobenzofuran], the “Enzyme Inhibitory Activity (%, 10^−6 M)” value in data set [1] is on record as 68%.
Same read-out and setting: as for `COc1ccc(C(=O)Cc2ccncc2)c2cc(-c3ccccc3)oc12.Cl` [Compound 111, 7-Methoxy-4-[1-oxo-2-(4-pyridyl)ethyl]-2-phenyl-benzofuran.hydrochloride], the figure is 69%; as for `COc1ccc(C(Cc2ccncc2)c2ccccc2)c2cc(-c3ccncc3)oc12.Cl` (racemic) [Compound 66, (±)-7-Methoxy-4-[1-phenyl-2-(4-pyridyl)ethyl]-2-(4-pyridyl)benzofuran.hydrochloride], 49%.
Still for that read-out and setting: as for `COc1ccc(C(=O)Nc2ccncc2)c2cc(-c3ccncc3)oc12.Cl.Cl` [Compound 39, 7-Methoxy-2-(4-pyridyl)-4-(4-pyridylaminocarbonyl)-benzofuran.2 hydrochloride], the figure is 77%; as for `COc1ccc(/C=C/c2ccncc2)c2cc(-c3ccccn3)oc12.Cl.Cl` [Compound 85, (E)-7-Methoxy-2-(2-pyridyl)-4-[2-(4-pyridyl)ethenyl]-benzofuran.2 hydrochloride], 69%.
On the same count and under the same terms, as for `COc1ccc(/C=C/c2ccncc2)c2c1OC1(CCCC1)C2.Cl` [Compound 74, (E)-7-Methoxy-4-[2-(4-pyridyl)ethenyl]-spiro[2,3-dihydrobenzofuran-2,1′-cyclopentane].hydrochloride], the figure is 73%; as for `COc1ccc(C(=O)Cc2ccncc2)c2cc(-c3ccncc3)oc12.Cl.Cl` [Compound 115, 7-Methoxy-4-[1-oxo-2-(4-pyridyl)ethyl]-2-(4-pyridyl)-benzofuran.2 hydrochloride], 85%; as for `COc1ccc(C(=O)Cc2ccncc2)c2c1O[C@@H]1CCCC[C@H]21.Cl` (racemic) [Compound 105, (±)-cis-6-Methoxy-9-[1-oxo-2-(4-pyridyl)ethyl]-1,2,3,4,4a,9b-hexahydrodibenzofuran.hydrochloride], 66%.
With `COc1ccc(C(Cc2c(Cl)cncc2Cl)OC)c2c1OC(C)(C)C2` (racemic) [Compound 62, (±)-4-[2-(3,5-Dichloro-4-pyridyl)-1-methoxyethyl]-7-methoxy-2,2-dimethyl-2,3-dihydrobenzofuran], the “Enzyme Inhibitory Activity (%, 10^−6 M)” value in data set [1] is on record as 63%.
